The assay relates to Jurkat, SKOV-3 and MESO-1 cells. Description: Cytotoxicity assay, statements for all tested cell lines together. The assay is classed as cell-based. As to conditions: Jurkat, SKOV-3 and MESO-1 cells, 72 h. The method, then:
Jurkat cells were cultured in RPMI1640 medium supplemented with 10% foetal bovine serum, penicillin (50 U/ml), streptomycin (50 μg/ml), and Glutamax. SKOV-3 cells were cultured in DMEM medium supplemented with 10% fetal bovine serum, penicillin (50 U/ml), and streptomycin (50 μg/ml). MESO-1 cells were cultured in RPMI1640 medium supplemented with 10% fetal bovine serum, penicillin (50 U/ml), and streptomycin (50 μg/ml). All cell lines were seeded in a 384-well plate at a density of 1000 cells/well in 20 μl of media and incubated at 37 °C in a humidified incubator with 5% CO2. After 4 h, 2-fold dilution samples resolved in DMSO were added to the cell culture at the concentration of 0.5% (0.1 μl) and incubated for 72 h. Cell viabilities were measured using a CellTiter-Glo luminescent cell viability assay and EnVision multilabel plate reader.

We go through one compound from publication PMC7419507, “In vitro Cas9-assisted editing of modular polyketide synthase genes to produce desired natural product derivatives” (Nature Communications, 2020).

Molecules are shown by their SMILES.

Turning to `COc1cc([C@@H]2c3cc4c(cc3[C@@H](O[C@@H]3O[C@@H]5CO[C@@H](C)O[C@H]5[C@H](O)[C@H]3O)[C@H]3COC(=O)[C@H]23)OCO4)cc(OC)c1O` [etoposide, reference compound], the “Effect on cell viability, in words” value is recorded as “typical cytotoxic activities”.
